The record followed here is US8476253B2, “Amide derivative” (Daiichi Sankyo Company, Limited, priority 2009, dated 2013).

What all share (parameters): species or system guinea pig
One experiment has as its target T1, neurokinin NK2 receptor (Cavia porcellus, UniProt Q64077).
T1 construct: Using healthy guinea pigs (body weight, 350 to 550 g; Hartley male guinea pigs); from tissue; host or cells: live anaesthetised Hartley male guinea pigs (airway, in vivo)
T1 sequence (Q64077 1-402): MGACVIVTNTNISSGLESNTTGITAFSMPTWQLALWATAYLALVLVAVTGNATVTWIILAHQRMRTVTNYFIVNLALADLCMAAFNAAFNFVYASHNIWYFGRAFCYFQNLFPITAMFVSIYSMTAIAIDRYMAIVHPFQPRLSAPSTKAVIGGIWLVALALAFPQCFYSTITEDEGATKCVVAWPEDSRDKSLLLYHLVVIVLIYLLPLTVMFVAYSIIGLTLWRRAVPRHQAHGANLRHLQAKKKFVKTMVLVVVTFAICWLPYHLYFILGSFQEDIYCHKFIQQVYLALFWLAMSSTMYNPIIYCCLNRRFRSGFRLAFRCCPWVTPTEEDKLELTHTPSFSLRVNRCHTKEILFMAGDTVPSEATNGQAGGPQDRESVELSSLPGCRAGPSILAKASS
Briefly: Effect of suppressing neurokinin A-induced airway contraction (in vivo, intratracheal administration). The settings on record: guinea pigs, intratracheal administration 60 minutes before 4 μg/kg i.v. NKA; AUC of increase in airway pressure over 10 minutes. The protocol:
Using healthy guinea pigs (body weight, 350 to 550 g; Hartley male guinea pigs), the effect of suppressing airway contraction induced by neurokinin A (NKA), which is an NK2 receptor agonist, was examined by a modified method of Konzett-Roessler (Naunyn-Schmiedebergs Arch. Exp. Pathol. Pharmakol. 195, 71 [1940]) using airway pressure as an indicator.
A tracheal cannula and a venous cannula were attached to a guinea pig anesthetized with pentobarbital (50 mg/mL solution, 0.40 to 0.50 mL/body, subcutaneous administration). An arterial cannula filled with heparin-containing physiological saline (100 U/mL) was further attached, and blood pressure and heart rate were monitored via an amplifier and an instantaneous heart rate meter. Subsequently, gallamine (20 mg/body, intravenous administration) was administered to terminate spontaneous breathing, and 10 mL/kg of positive pressure breathing (Ugo-Basile Biological Research Apparatus, Cat. No. 7025) was rapidly performed at 60 times/min. The airway pressure during artificial breathing was detected with a pressure transducer (TP-200T or TP-400T; Nihon Kohden Corporation) attached to a side branch of the tracheal cannula, amplified (AP-601G; Nihon Kohden Corporation), and recorded in a recorder. After the airway pressure, blood pressure, and heart rate were stabilized, 4 μg/kg of NKA was intravenously administered from the venous cannula to induce airway contraction, and the airway pressure was measured for the following 10 minutes.
The test substance was dissolved in a 5% glucose solution, and a 0.5 mL/kg solution was intratracheally administered with an intratracheal administration apparatus (model 1A-1B; Penn-Century, Inc.) 60 minutes before stimulation with NKA.
The AUC of increase in the airway pressure over 10 minutes after administration of NKA was determined as the intensity of NKA-induced airway contraction and calculated as an ID50 value from the inhibition rate based on the value of the control group (5% glucose solution intratracheal administration group).

The test system of another experiment is muscarine M3 receptor. Briefly: Effect of suppressing methacholine-induced airway contraction (in vivo, intratracheal administration). The settings on record: guinea pigs, intratracheal administration 60 minutes before 30 μg/kg i.v. methacholine; AUC of increase in airway pressure over 10 minutes. The protocol:
Using healthy guinea pigs (body weight, 350 to 550 g; Hartley male guinea pigs), the effect of suppressing airway contraction induced by methacholine, which is a muscarine receptor agonist, was examined by a modified method of Konzett-Roessler (Naunyn-Schmiedebergs Arch. Exp. Pathol. Pharmakol. 195, 71 [1940]) using airway pressure as an indicator.
(§1) A tracheal cannula and a venous cannula were attached to a guinea pig anesthetized with pentobarbital (50 mg/mL of solution, 0.40 to 0.50 mL/body, subcutaneous administration). An arterial cannula filled with heparin-containing physiological saline (100 U/mL) was further attached, and blood pressure and heart rate were monitored via an amplifier and an instantaneous heart rate meter. Subsequently, gallamine (20 mg/body, intravenous administration) was administered to terminate spontaneous breathing, and then 10 mL/kg of positive pressure breathing (Ugo-Basile Biological Research Apparatus, Cat. No. 7025) was rapidly performed at 60 times/min. The airway pressure during artificial breathing was detected with a pressure transducer (TP-200T or TP-400T; Nihon Kohden Corporation) attached to a side branch of the tracheal cannula, amplified (AP-601G; Nihon Kohden Corporation), and recorded in a recorder. After the airway pressure, blood pressure, and heart rate were stabilized, 30 μg/kg of methacholine was intravenously administered from the venous cannula to induce airway contraction, and the airway pressure was measured for the following 10 minutes.
A test substance was dissolved in 5% glucose solution, and a 0.5 mL/kg solution was administered intratracheally with an intratracheal administration apparatus (model 1A-1B; Penn-Century, Inc.) 60 minutes before stimulation with methacholine.
The AUC of increase in the airway pressure over 10 minutes after administration of methacholine was measured as the intensity of methacholine-induced airway contraction and calculated as an ID50 value from the inhibition rate based on the value of the control group (a 5% glucose solution intratracheal administration group).

Another experiment concerns the target T2, neurokinin NK1 receptor (Cavia porcellus, UniProt P30547).
T2 construct: Using healthy guinea pigs (body weight, 350 to 550 g; Hartley male guinea pigs); from tissue; host or cells: live anaesthetised Hartley male guinea pigs (airway, in vivo)
Nature of the experiment: Effect of suppressing substance P-induced airway contraction (in vivo, intratracheal administration). The settings on record: guinea pigs, intratracheal administration 60 minutes before 20 μg/kg i.v. SP; AUC of increase in airway pressure over 10 minutes. The protocol:
Using healthy guinea pigs (body weight, 350 to 550 g; Hartley male guinea pigs), the effect of suppressing airway contraction induced by substance P (SP), which is an NK1 receptor agonist, was examined by a modified method of Konzett-Roessler (Naunyn-Schmiedebergs Arch. Exp. Pathol. Pharmakol. 195, 71 [1940]) using airway pressure as an indicator.
as §1, with “mg/mL” for “mg/mL of”, “20” for “30”, “SP” for “methacholine”
The test substance was dissolved in a 5% glucose solution, a 0.5 mL/kg solution was intratracheally administered with an intratracheal administration apparatus (model 1A-1B; Penn-Century, Inc.) 60 minutes before stimulation with SP.
The AUC of increase in the airway pressure over 10 minutes after administration of SP was determined as the intensity of SP-induced airway contraction and calculated as an ID50 value from the inhibition rate based on the value of the control group (5% glucose solution intratracheal administration group).

T2 sequence (P30547 whole entry): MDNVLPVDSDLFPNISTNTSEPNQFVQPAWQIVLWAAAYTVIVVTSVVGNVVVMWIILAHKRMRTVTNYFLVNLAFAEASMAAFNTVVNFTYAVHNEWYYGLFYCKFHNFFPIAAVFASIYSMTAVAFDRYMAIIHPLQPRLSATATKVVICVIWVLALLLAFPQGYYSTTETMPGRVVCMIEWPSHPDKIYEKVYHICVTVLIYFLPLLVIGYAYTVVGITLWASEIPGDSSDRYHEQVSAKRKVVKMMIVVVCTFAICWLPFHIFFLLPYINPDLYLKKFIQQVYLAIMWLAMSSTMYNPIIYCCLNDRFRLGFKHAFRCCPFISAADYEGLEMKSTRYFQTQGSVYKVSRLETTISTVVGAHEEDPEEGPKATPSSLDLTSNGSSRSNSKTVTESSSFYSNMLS

As to `CN(CCN1CCC(OC(=O)Nc2ccccc2-c2ccccc2)CC1)C(=O)CCCCCCNc1ccc(C(=O)N(C)CCCN(C)C(=O)CO[C@H]2Cc3ccccc3C23CCN(CC[C@@]2(c4ccc(F)cc4)CN(C(=O)c4cc(C(F)(F)F)cc(C(F)(F)F)c4)CO2)CC3)cc1.Cl.Cl.Cl` [Example 39], the ID50 at neurokinin NK2 receptor came out at 0.0336 mg/kg; in the experiment on muscarine M3 receptor it was 0.0559 mg/kg; on neurokinin NK1 receptor it was 0.0388 mg/kg.
